Data: patent US20260028334A1, “N-(3-(BENZO[B]THIOPHENE-2-CARBOXAMIDO)-PHENYL)-2,3-DIHYDROBENZO[B][1,4]DIOXINE-6-CARBOXAMIDE DERIVATIVES AND RELATED COMPOUNDS AS LACTATE/ATP PRODUCTION INHIBITORS FOR THE TREATMENT OF CANCER” (WMT Aktiengesellschaft, priority 2022, published 2026)

Tests used:
[1] = test system: lactate production; assay: Lactate production inhibition assay; type: cell-based; conditions: summary of Table 1
Text: (§1) Recombinant Lactate Dehydrogenase A (LDHA) was used to convert lactate in tissue culture supernatants to pyruvate, with the concomitant reduction of NAD^+ to NADH. The electron acceptor 1-methoxyphenazine methosulfate (MPMS) was then reduced by the generated NADH, thereby regenerating NAD+. Reduced 1-methoxyphenazine methosulfate is used in turn to reduce Water Soluble Tetrazolium 8 (WST8) to an orange WST8 formazan product. The assay is adapted from the publication “Application of WST-8 based colorimetric NAD(P)H detection for quantitative dehydrogenase assays” described in Chamchoy et al., BMC Biochemistry (2019) 20(1):4.
(§2) Cells were plated at 4,000 per well in 96-well plate in a medium of high glucose DMEM (PAN) supplemented with 10% FBS (PAN), 2 mM glutamine-alanine (PAN), 2 mM pyruvate (Sigma) and 10 mL/L penicillin-streptomycin (PAN) and grown at 37° C. in 0.5% O2, 5% CO2 and 75% humidity. For hypoxia, cells were grown and treated in the Whitley H35 Hypoxystation (Don Whitley Scientific) at 37° C. in 0.5% O2, 5% CO2 and 75% humidity. The next day, cells were induced with test compounds (FIG. 2: compounds of examples 3/16, 3/8, 10 at 10000, 3333, 1111, 370, 123, 41, 14, 5 and 1.5 nM; FIG. 7: compounds of examples 3/16, 3/8, 10 at 41, 14, 4.6 nM and Phenformin at 100, 50, 25, 12.5, 6.25 μM; FIGS. 8C and 8D: compounds of example 3/16, 3/8, 10, 3/19, 30 and 30/2 at 10000, 3333, 1111, 370, 123, 41, 14, 5 and 1.5 nM), as well as with vehicle (DMSO) only, for 48 hours. After this time, the medium was removed from the cells to measure extracellular lactate. To detect extracellular lactate, cell supernatants are diluted 1:5 in assay buffer (0.2 M tris, pH 8.2) by adding 10 μl cell supernatant+40 μl buffer in a 96-well plate. Assay substrate mix is prepared by adding NAD+ (3.75 mM), WST-8 (0.9 mM), MPMS (10 mM) and recombinant LDHA, expressed in E. coli as an N-terminal hexahistidine tagged fusion protein, is added to a final concentration of 0.8 μg/ml in assay buffer. Thereafter, 80 μl of substrate mix is added to 20 μl of diluted cell supernatant in a 96-well flat-bottomed plate and the absorbance at 460 nm determined at one minute intervals over a 30 minute period. A standard curve of known lactate concentrations of 10, 8, 6, 4, 1, 0.5 and 0.25 mM was constructed for each assay plate.

[2] = test system: Panc02 and SKOV3 cells; assay: Assay for inhibition of ATP production (FIGS. 8A and 8B); type: cell-based; conditions: 48 hours treatment, 1.5 to 10000 nM
Procedure: The assay determines the amount of ATP in cells in culture.
Cells were plated at 4,000 per well in 96-well plate in a medium of high glucose DMEM (PAN) supplemented with 10% FBS (PAN), 2 mM glutamine-alanine (PAN), 2 mM pyruvate (Sigma) and 10 mL/L penicillin-streptomycin and grown at 37° C. in 0.5% O2, 5% CO2 and 75% humidity. For hypoxia, cells were grown and treated in the Whitley H35 Hypoxystation (Don Whitley Scientific) at 37° C. in 0.5% O2, 5% CO2 and 75% humidity. The next day, cells were induced with test compounds (FIG. 1: compounds of examples 3/16, 3/8, 10 at 10000, 3333, 1111, 370, 123, 41, 14, 5 and 1.5 nM; FIGS. 8A and 8B: compounds of example 3/19, 30 and 30/2 at 10000, 3333, 1111, 370, 123, 41, 14, 5 and 1.5 nM), as well as with vehicle (DMSO) only, for 48 hours. After this time, the medium was removed from the cells and intracellular ATP levels were determined using the Promega CellTiter-Glo 2.0 assay protocol (Promega, G9241). To estimate the effect of compounds on the ATP production, sample values were compared to the values of DMSO only. IC50 values were generated by plotting the luciferase counts against compound concentration.

[3] = test system: Panc02 and SKOV3 cells; assay: Lactate production inhibition assay (FIGS. 8C and 8D); type: cell-based; conditions: 48 hours treatment, 1.5 to 10000 nM
Text: as §1, §2

[4] = test system: ER stress markers CHAC and CHOP/DDIT3; assay: Gene expression analysis by qPCR (FIG. 8E-8AB); type: cell-based; conditions: Panc02 and SKOV3 cells, 10 nM, 0.5, 1, 2 and 4 hours
Procedure: Cells were plated at 40,000 cells per ml in medium of high glucose DMEM (PAN) supplemented with 10% FBS (PAN), 2 mM glutamine-alanine (PAN), 2 mM pyruvate (Sigma) and 10 mL/L penicillin-streptomycin (PAN), and grown at 37° C. in 0.5% O2, 5% CO2 and 75% humidity. Next day, cells were induced with test compounds (FIG. 3: compounds of example 3/16, 3/8, 10 at 10 nM; FIG. 8E-8AB: compounds of example 3/16, 3/8, 10, 3/19, 30 and 30/2 at 10 nM) 0.5, 1, 2 and 4 hours, as well as with vehicle (DMSO) only. After this time, the cells were lysed according to protocol (Promega, SV 96 Total RNA Isolation System, #Z3505). After transferring the lysate to a 96-well-RNA binding plate, RNA was isolated and put at approx. 1 μg into cDNA synthesis using LunaScript RT SuperMix Kit (NEB, #E3010). The resulting cDNA was diluted 1:5 and used for qPCR Analysis (Taqman). Luna Universal Probe qPCR Master Mix (NEB, #M3004) is used as 2× reaction mix to which the diluted cDNA is added. The qPCR analysis was performed using QuantStudio™ 6 Flex real-time PCR systems (Thermo Fisher Scientific).
A set of primers plus probe for each gene of interest was purchased at IDT (Integrated DNA Technologies).

[5] = patients treated with the drug; cited from earlier work

SMILES	activity in inhibiting production of ATP and/or lactate [1]	ATP production level [2]	lactate levels [3]	ER stress markers CHAC and CHOP/DDIT3 [4]	incidence of lactic acidosis [5]
O=C(Nc1ccc(F)c(NC(=O)c2cc3ccc(OCC(O)CN4CCCC4)cc3s2)c1)c1ccc2c(c1)OCCO2 (racemic) [Example 30, N-(4-Fluoro-3-(6-(2-hydroxy-3-(pyrrolidin-1-yl)propoxy)benzo[b]thiophene-2-carboxamido)phenyl)-2,3-dihydrobenzo[b][1,4]dioxine-6-carboxamide]	high activity	dose-dependent reduction	dose-dependent downregulation	time-dependent upregulation	
O=C(Nc1ccc(F)c(NC(=O)c2cc3ccc(OC[C@H](O)CN4CCCC4)cc3s2)c1)c1ccc2c(c1)OCCO2 (single isomer, unassigned) [Example 30/2, N-(4-Fluoro-3-(6-(2-hydroxy-3-(pyrrolidin-1-yl)propoxy)benzo[b]thiophene-2-carboxamido)phenyl)-2,3-dihydrobenzo[b][1,4]dioxine-6-carboxamide]	high activity	dose-dependent reduction	dose-dependent downregulation	time-dependent upregulation	
CCN1CCN(Cc2ccc3cc(C(=O)Nc4cc(NC(=O)c5ccc6c(c5)OCCO6)ccc4F)sc3n2)CC1 [3/19]	high activity	dose-dependent reduction	dose-dependent downregulation	time-dependent upregulation	
CN(C)C(=N)N=C(N)N [Metformin, metformin]					3 cases in 100,000 patients
[H]/N=C(/N)N/C(=N/[H])NCCc1ccccc1 [Phenformin, phenformin]					64 cases in 100,000 patients
